Assay results reported in patent US20100069499A1 (priority 2007, published 2010).

Experiments:
Sclerotinia sclerotiorum = assay: Test of preventive effect on cucumber stem rot; format: in vivo; details: cucumber (Sagamihanjiro), foliage application 500 ppm, 4 days at 18° C. and high humidity
Experimental: (§1) The controlling effect was evaluated by visually observing the area or a lesion spots on each of test plants at the time of investigation and comparing the area of lesion spots on a plant treated with the compound of the present invention with that on an untreated plant.
Each of plastic pots was filled with sandy loam and sown with cucumber (variety; Sagamihanjiro), followed by growing in a greenhouse for 12 days. The compound 2 of the present invention was formulated into a flowable formulation according to Formulation Example 6. The flowable formulation was diluted to a predetermined concentration (500 ppm) with water, and foliage application of the dilution was carried out so that the dilution adhered sufficiently to the surfaces of leaves of the grown cucumber young seedling. After the foliage application, the plant was air-dried and a PDA medium containing mycelia of Sclerotinia sclerotiorum was placed on the surfaces of the cucumber leaves. After the inoculation, the plant was grown at 18° C. and high humidity for 4 days. Then, the area of lesion spots was investigated.

Fusarium culmorum = assay: Test of preventive effect on wheat Fusarium blight; format: in vivo; details: wheat (Shirogane), foliage application 500 ppm, 4 days darkness and high humidity at 23° C. then 3 days lighting
Experimental: as §1
Each of plastic pots was filled with sandy loam and sown with wheat (cultivar; Shirogane), followed by growing in a greenhouse for 10 days. The compound 1 of the present invention was formulated into a flowable formulation according to Formulation Example 6. The flowable formulation was diluted to a predetermined concentration (500 ppm) with water, and foliage application of the dilution was carried out so that the dilution adhered sufficiently to the surfaces of leaves of the grown wheat young seedling. After the foliage application, the plant was air-dried and then inoculated by spraying a water suspension of spores of Fusarium culmorum. After the inoculation, the plant was held under darkness and high humidity conditions at 23° C. for 4 days and held under lighting conditions for 3 days, and then the area of lesion spots was investigated.

| Compound | area of lesion spots on the treated plant relative to that on an untreated plant (Sclerotinia sclerotiorum) | area of lesion spots on the treated plant relative to that on an untreated plant (Fusarium culmorum) |
| --- | --- | --- |
| C#CCOc1c(F)cc(C(=O)NC2CCCCC2C)cc1Cl (centres unmarked) [compound 2, N-(2-methylcyclohexyl)-3-chloro-5-fluoro-4-(2-propynyloxy)benzamide] | ≤ 30% | – |
| C#CCOc1c(F)cc(C(=O)NCC2CCCCC2)cc1Cl [compound 1, N-(cyclohexylmethyl)-3-chloro-5-fluoro-4-(2-propynyloxy)benzamide] | – | ≤ 30% |
